Series [1] can be described thus: Binding affinity to FAM-TWJ-S1/TWJ-S2/TAMRA-TWJ-S3 DNA (unknown origin) assessed as normalized FAM intensity at 1 uM measured at 5 mins interval for 1 hr by fluorescence assay relative to control.
A short description of series [2]: Binding affinity to FAM-TWJ-S1 DNA (unknown origin) assessed as normalized FAM intensity at 1 uM measured at 5 mins interval for 1 hr by fluorescence assay relative to control.
Series [3] in a line: Selectivity ratio of Kapp for TWJ DNA (unknown origin) to Kapp for ds17 DNA by equilibrium dialysis method (unknown origin).
A short description of series [4]: Binding affinity to FAM-TWJ-TAMRA DNA (unknown origin) assessed as change in melting temperature at 1 uM after 30 mins by FRET assay.
The nature of series [5]: Binding affinity to FAM-TWJ-TAMRA DNA (unknown origin) assessed as change in melting temperature at 1 uM after 30 mins in presence of 3 uM ds26 DNA by FRET assay.
The nature of series [6]: Binding affinity to FAM-TWJ-TAMRA DNA (unknown origin) assessed as change in melting temperature at 1 uM after 30 mins in presence of 10 uM ds26 DNA by FRET assay.
Series [7] can be described thus: Selectivity ratio of compound effect for binding affinity to FAM-TWJ-TAMRA DNA (unknown origin) assessed as change in melting temperature at 1 uM in absence of 10 uM ds26 DNA to compound effect for binding affinity to FAM-TWJ-TAMRA DNA (unknown origin) assessed as change in melting temperature at 1 uM in presence of 10 uM ds26 DNA.
The nature of series [8]: Binding affinity to TWJ DNA (unknown origin) assessed as equilibrium binding constant at 1:2 DNA to compound ratio after 1 hr by ESI-MS analysis.
A short description of series [9]: Binding affinity to ds17 DNA measured after 24 hrs by equilibrium dialysis method.
Series [10] is described as follows: Binding affinity to TWJ DNA (unknown origin) measured after 24 hrs by equilibrium dialysis method.
The nature of series [11]: Binding affinity to ds17 DNA (unknown origin) assessed as equilibrium binding constant at 1:2 DNA to compound ratio after 1 hr by ESI-MS analysis.
The test system of series [12] is MCF7. As to the kind of experiment: Antiproliferative activity against human MCF7 cells assessed as reduction in cell viability measured after 72 hrs by SRB assay. Type of series: functional. As to conditions: MCF7, 72 h, read-out: LD50 (the source's name).
Series [13] is described as follows: Selectivity ratio of K for TWJ DNA (unknown origin) to K for ds17 DNA (unknown origin).
Series [14] concerns MDA-MB-231. As to the kind of experiment: Antiproliferative activity against human MDA-MB-231 cells assessed as reduction in cell viability measured after 72 hrs by SRB assay. The series is classed as functional. Particulars: MDA-MB-231, 72 h, read-out: LD50 (the source's name).
A short description of series [15]: Cytotoxicity against human hTERT-BJ cells assessed as reduction in cell viability measured after 72 hrs by SRB assay. Type of series: cell-based. Particulars: read-out: LD50.
The nature of series [16]: Binding affinity to TWJ-S1/TWJ-S2/TWJ-S3 DNA (unknown origin) assessed as compound-DNA complex formation at 30 uM measured after 1 hr by sybrgold-staining based PAGE analysis.
Series [17] is described as follows: Selectivity index, ratio of LD50 for human hTERT-BJ cells to LD50 for human MDA-MB-231 cells. The series is classed as toxicity. As to conditions: hTERT-BJ cells versus MDA-MB-231 cells, read-out: Selectivity Index.
The nature of series [18]: Selectivity index, ratio of LD50 for human hTERT-BJ cells to LD50 for human MCF7 cells. Particulars: hTERT-BJ cells versus MCF7 cells, read-out: Selectivity Index. The series is classed as toxicity.
Series [19] in a line: Binding affinity to ds17 DNA (unknown origin) assessed as equilibrium binding constant at 1:3 DNA to compound ratio after 1 hr by ESI-MS analysis.
Series [20] concerns MCF7. Description: Induction of DNA damage in human MCF7 cells assessed as gammaH2AX accumulation at 10 times antiproliferative LD50 measured after 72 hrs by DAPI staining-based confocal laser scanning microscopic analysis. The series is classed as functional, cell-based.
A short description of series [21]: Binding affinity to FAM-TWJ-S1/TWJ-S2/TWJ-S3 DNA (unknown origin) assessed as compound-DNA complex formation at 12 uM measured after 1 hr in presence of ds12 DNA by sybrgold-staining based PAGE analysis.

Activity calls are given as the source filed them. The calls are words filed in the database; no cut-off is given here. Where only a bound is given, the exact number is not on record here.

As to `c1cc2nc3ccc4cc3cc2cc1CNCCOCCNCc1ccc2nc3ccc(cc3cc2c1)CNCCOCCNC4`, the Ratio in series [1] came out at 54%; in [2], 27%. Also, the values for the Selectivity ratio in series [3], in [7] and in [13] were above 1, 84% and above 4, respectively. For the same molecule, the ΔTm was found to be 23 °C in series [4], 20.4 °C in series [5] and 17.1 °C in series [6]. The K in series [8] was 1.9 ×10⁹ /M; in series [11] it was 3.1 ×10⁴ /M. Further, the Kapp turned out to be 3.8 ×10⁵ /M in series [9] and 1.4 ×10⁷ /M in [10]. Moreover, the CC50 in series [12] stood at 4800 nM; in series [14] it was 2800 nM. For the same molecule, the CC50 at 72 h in series [15] is 1000 nM.

As to `c1cc2c3cccc(c3c1)CNCCOCCNCc1cccc3c(cccc13)CNCCOCCNC2`, the values for the Ratio in series [1] and in series [2] were 42% and 118%, respectively. The outcome in series [16] was Active. Besides, the Selectivity ratio is above 1 in series [3], 82% in series [7] and above 2 in [13]. In addition, the results for the ΔTm in series [4], in series [5] and in series [6] were 10.4 °C, 8.9 °C and 8.5 °C, respectively. The K in series [8] is 4.7 ×10⁷ /M; in [11], 7.5 ×10⁴ /M. Also, the results for the Kapp in series [9] and in series [10] were 5.9 ×10⁵ /M and 8.7 ×10⁶ /M, respectively. The figures for the CC50 in series [12] and in series [14] were 1300 nM and 160 nM, respectively. Further, the CC50 at 72 h in [15] was 40 nM.

Take `CN(C)CCCNCC12c3ccccc3C(CNCCCN(C)C)(c3ccccc31)c1ccccc12`: the Ratio in series [1] amounted to 27%; in series [2] it was 100%. Moreover, the outcome in [16] was inactive. Moreover, in [4], the ΔTm stood at 0.6 °C.

On to `c1cc2cc(c1)-c1cccc(c1)CNCCN1CCNCc3cccc(c3)-c3cccc(c3)CNCCN(CCNC2)CCNCc2cccc(c2)-c2cccc(c2)CNCC1`, for which the Ratio in series [1] amounted to 33%; in [2], 109%. Moreover, the outcome in [16], in [20] and in series [21] was Active. Also, the Selectivity ratio in [3] was above 2; in [7], 91%; in series [13] it was above 2. Besides, the ΔTm in series [4] was found to be 17.5 °C; in [5], 16.6 °C; in series [6], 15.9 °C. In addition, the K in [8] is 3.9 ×10⁶ /M; in [19] it was 7.5 ×10³ /M. The Kapp in series [9] worked out at 4.7 ×10⁴ /M; in [10], 6 ×10⁶ /M. Further, the selectivity ratio in [17] and in [18] was 2 in each case. In addition, the K entry in series [11] is “inactive”. For the same molecule, the results for the CC50 in [12] and in series [14] were 100 nM and 1300 nM, respectively. The CC50 at 72 h in [15] was found to be 2600 nM.

Take `c1cc2c3nc4c(cccc4cc3c1)CNCCOCCNCc1cccc3cc4cccc(c4nc13)CNCCOCCNC2`: the Ratio is 35% in series [1] and 80% in series [2]. Further, the values for the ΔTm in [4], in series [5] and in [6] were 11.6 °C, 5.5 °C and 4.6 °C, respectively. Further, in series [7], the Selectivity ratio was 39%.

Turning to `COCCOCCOCC[n+]1ccc(-c2c3nc(c(-c4cc[n+](CCOCCOCCOC)cc4)c4ccc([nH]4)c(-c4cc[n+](CCOCCOCCOC)cc4)c4nc(c(-c5cc[n+](CCOCCOCCOC)cc5)c5ccc2[nH]5)C=C4)C=C3)cc1`, the Ratio turned out to be 72% in series [1] and 27% in series [2]. Besides, the values for the ΔTm in series [4], in series [5] and in series [6] were 11 °C, 7 °C and 4 °C, respectively. Besides, in series [7], the Selectivity ratio was found to be 36%.

As to `NCCCNC[C@]12c3ccccc3[C@](CNCCCN)(c3ccccc31)c1cc3ccccc3cc12`, the figures for the Ratio in series [1] and in series [2] were 63% and 40%, respectively. Also, the outcome in series [16] was inactive. In [4], the ΔTm was determined as 0.8 °C.

Regarding `c1cc2ccc3ccc(-[n+]4csc5ccccc54)c4ccc(c1)c2c34`, the results for the Ratio in series [1] and in series [2] were 23% and 100%, respectively. The outcome in series [16] was inactive. Further, the ΔTm in [4] is 0 °C.

For `c1cc2ccc3cc2cc1CNCCNCCNCc1ccc2ccc(cc2c1)CNCCNCCNC3`, the Ratio was found to be 46% in series [1] and 37% in series [2]. Also, the result in series [16] was Active. For the same molecule, the figures for the ΔTm in series [4] and in series [5] were 4.2 °C and below 5 °C, respectively.

With `Cn1c[n+](-c2ccc3ccc4cccc5ccc2c3c45)cn1`, the Ratio in [1] amounted to 22%; in series [2] it was 101%. Further, the result in series [16] was inactive. Further, the ΔTm in series [4] stood at 1.5 °C.

Consider `C[n+]1ccc(-c2c3nc(c(-c4cc[n+](C)cc4)c4ccc([nH]4)c(-c4cc[n+](C)cc4)c4ccc([nH]4)c(-c4cc[n+](C)cc4)c4nc2C=C4)C=C3)cc1`, for which the figures for the Ratio in series [1] and in series [2] were 86% and 8%, respectively. Moreover, the ΔTm in series [4] is 22.5 °C; in [5], 12 °C; in series [6] it was 8 °C. For the same molecule, the Selectivity ratio in series [7] came out at 35%.

The values above are taken from ChEMBL document CHEMBL4346694, “Identification of Three-Way DNA Junction Ligands through Screening of Chemical Libraries and Validation by Complementary in Vitro Assays” (J Med Chem, 2019).
